Data from patent publication US7026281B1, “Antagonistic analogs of GH-RH inhibiting IGF-I and -II” (The Administrators of the Tulane Educational Fund, priority 1998, dated 2006).
Marks after values point to notes of the source that are not given here. Square brackets hold non-standard residues; d marks the D form. Peptide text beside a SMILES is read from it. * marks the point of attachment. Phe(4-Cl) = N[C@@H](Cc1ccc(Cl)cc1)C(=O)O; hArg = N=C(N)NCCCC[C@H](N)C(=O)O; Nle = CCCC[C@H](N)C(=O)O; Abu = CC[C@H](N)C(=O)O; PhAc = O=C(Cc1ccccc1)*

Columns and labels:
[1] = test system: Estrogen independent MXT mouse mammary tumors; test: MXT mouse mammary tumors in BDF mice; format: in vivo; conditions: for Tumor weights: day 18; for Number of surviving mice: groups of 10
Procedure: Estrogen independent MXT tumors were transplanted sc. to female BDF mice. One day after transplantation, the mice were divided into groups of 10 animals each, and the treatment was started. The mice in groups 1, 2, 3, and 4 received single injections daily of various GH-RH antagonists sc. at 20 μg dose per day for 18 days. In groups 5 and 6, the peptides were administered by Alzet osmotic pumps releasing a daily amount of 20 μg peptide. Tumors were measured regularly, and tumor volume was calculated. The mice were sacrificed on day 18 and tumor weights were measured.

[2] = target: T1, rat pituitary GH-RH receptors (Rattus norvegicus, UniProt Q02644); test: GH-RH radioreceptor binding assay, rat anterior pituitary membrane homogenates; conditions: for Ki: competition with [His1,125I-Tyr10,Nle27]hGH-RH(1–32)NH2; for R.A. (relative affinity compared to Standard antagonist): ratio of Ki values
T1 construct: from tissue; host or cells: anterior pituitary of male Sprague-Dawley rats, crude membrane homogenates
T1 sequence (Q02644 23-464): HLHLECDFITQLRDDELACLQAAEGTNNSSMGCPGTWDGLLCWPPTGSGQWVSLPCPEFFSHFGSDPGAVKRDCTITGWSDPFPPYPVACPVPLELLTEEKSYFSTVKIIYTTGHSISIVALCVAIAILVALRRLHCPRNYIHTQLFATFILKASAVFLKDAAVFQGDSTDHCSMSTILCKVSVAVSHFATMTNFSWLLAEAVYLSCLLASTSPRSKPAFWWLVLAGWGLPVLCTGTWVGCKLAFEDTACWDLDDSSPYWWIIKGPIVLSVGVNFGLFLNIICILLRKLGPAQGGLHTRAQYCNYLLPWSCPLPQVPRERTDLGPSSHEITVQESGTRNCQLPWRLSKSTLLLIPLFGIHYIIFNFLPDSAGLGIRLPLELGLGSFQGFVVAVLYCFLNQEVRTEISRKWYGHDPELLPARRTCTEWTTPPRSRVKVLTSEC
How it was run: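 Antagonists competed with [His^1,^125I-Tyr^10,Nle^27]hGH-RH(1–32)NH2 for binding to crude anterior pituitary membranes from male Sprague-Dawley rats, with γ-counting of the pellet. Ki came from Munson–Rodbard analysis. Relative affinity is the Ki of the test antagonist divided by the Ki of standard [Ac-Tyr^1,D-Arg^2]hGH-RH(1–29)NH2.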

[3] = test system: GH release stimulated by hGH-RH(1–29)NH2; test: In vivo inhibition of serum GH response in rats; parameters: species or system rat; conditions: for Inhibition of the GH release stimulated by hGH-RH(1–29)NH2 (in words): 80 μg/kg i.v., rats
How it was run: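 Male Sprague-Dawley rats (200–250 g) under Nembutal received antagonist at 80 μg/kg i.v., then GH-RH(1–29)NH2 at 3 μg/kg after 5, 15, 30 or 60 min; controls received vehicle (5.5% mannitol). GH was measured by RIA before antagonist and 5 min after GH-RH, and inhibition was calculated as […].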

[4] = Alzet osmotic pump, 20 μg daily
[5] = single daily sc. injections, 20 μg per day
[6] = antagonist 80 μg/kg i.v. 5 min before GH-RH
[7] = antagonist 80 μg/kg i.v. 15 min before GH-RH
[8] = antagonist 80 μg/kg i.v. 15 min before GH-RH 3 μg/kg
[9] = antagonist 80 μg/kg i.v. 30 min before GH-RH
[10] = antagonist 80 μg/kg i.v. 30 min before GH-RH 3 μg/kg
[11] = antagonist 80 μg/kg i.v. 60 min before GH-RH
[12] = antagonist 80 μg/kg i.v. 60 min before GH-RH 3 μg/kg
[13] = rGH=GHblood1/GHblood0, antagonist 80 μg/kg i.v. 5 min before GH-RH 3 μg/kg

SMILES | Tumor volume (mm^3) On day 14 [1, 4] | Tumor volume (mm^3) On day 18 [1, 4] | Tumor weights [1, 4] | Number of surviving mice [1, 4] | Tumor volume (mm^3) On day 14 [1, 5] | Tumor volume (mm^3) On day 18 [1, 5] | Tumor weights [1, 5] | Number of surviving mice [1, 5] | Ki [2] | R.A. (relative affinity compared to Standard antagonist) [2] | Inhibition of the GH release stimulated by hGH-RH(1–29)NH2 (in words) [3] | Relative inhibition % of GH response [3, 6] | Relative inhibition % of GH response [3, 7] | GH response mean ± S.E.M. [3, 8] | Relative inhibition % of GH response [3, 9] | GH response mean ± S.E.M. [3, 10] | Relative inhibition % of GH response [3, 11] | GH response mean ± S.E.M. [3, 12] | GH response mean ± S.E.M. [3, 13]
CCCC[C@H](NC(=O)[C@@H](NC(=O)[C@H](CC(=O)O)NC(=O)[C@H](CCC(N)=O)NC(=O)[C@H](CC(C)C)NC(=O)[C@H](CC(C)C)NC(=O)[C@H](CCCCN)NC(=O)[C@H](CCCNC(=N)N)NC(=O)[C@H](C)NC(=O)[C@H](CO)NC(=O)[C@H](CC(C)C)NC(=O)[C@H](CCC(N)=O)NC(=O)[C@H](CC)NC(=O)[C@H](CC(C)C)NC(=O)[C@@H](NC(=O)[C@H](CCCCN)NC(=O)[C@H](CCCNC(=N)N)NC(=O)[C@H](Cc1ccc(O)cc1)NC(=O)[C@H](CCCNC(=N)N)NC(=O)[C@H](CC(N)=O)NC(=O)[C@@H](NC(=O)[C@H](Cc1ccc(Cl)cc1)NC(=O)[C@@H](NC(=O)[C@H](C)NC(=O)[C@H](CC(=O)O)NC(=O)[C@@H](CCCNC(=N)N)NC(=O)[C@H](Cc1ccc(O)cc1)NC(=O)Cc1ccccc1)[C@@H](C)CC)[C@@H](C)O)C(C)C)[C@@H](C)CC)C(=O)N[C@H](CCCNC(=N)N)C(=O)N[C@@H](CCCCNC(=N)N)C(N)=O [Peptide 1, [PhAc^0, D-Arg^2, Phe(pCl)^6, Arg^9, Abu^15, Nle^27, D-Arg^28, Har^29]hGH-RH(1–29)NH2] (PhAc-Y[dR]DAI[Phe(4-Cl)]TNRYRKVL[Abu]QLSARKLLQDI[Nle][dR][hArg]-NH2) | 1329 ± 327** mm^3 | 3403 ± 584** mm^3 | 4810 ± 645 mg | 7 | 2924 ± 654 mm^3 | 4373 ± 381** mm^3 | 6964 ± 676 mg | 6 | 0.044 nM | 67 | strong and long-lasting inhibition | 95% | 68% | 1.87 ± 0.13 | 64% | 1.97 ± 0.16 | −8% | 3.89 ± 0.65 | 1.13 ± 0.13
CCCC[C@H](NC(=O)[C@@H](NC(=O)[C@H](CC(=O)O)NC(=O)[C@H](CCC(N)=O)NC(=O)[C@H](CC(C)C)NC(=O)[C@H](CC(C)C)NC(=O)[C@H](CCCCN)NC(=O)[C@H](CCCNC(=N)N)NC(=O)[C@H](C)NC(=O)[C@H](CO)NC(=O)[C@H](CC(C)C)NC(=O)[C@H](CCC(N)=O)NC(=O)[C@H](CC)NC(=O)[C@H](CC(C)C)NC(=O)[C@@H](NC(=O)[C@H](CCCCN)NC(=O)[C@H](CCCNC(=N)N)NC(=O)[C@H](Cc1ccc(OC)cc1)NC(=O)[C@H](CCCCNC(=N)N)NC(=O)[C@H](CC(N)=O)NC(=O)[C@@H](NC(=O)[C@H](Cc1ccc(Cl)cc1)NC(=O)[C@@H](NC(=O)[C@H](C)NC(=O)[C@H](CC(=O)O)NC(=O)[C@@H](CCCNC(=N)N)NC(=O)[C@H](Cc1ccc(O)cc1)NC(=O)Cc1ccccc1)[C@@H](C)CC)[C@@H](C)O)C(C)C)[C@@H](C)CC)C(=O)N[C@H](CCCNC(=N)N)C(=O)N[C@@H](CCCCNC(=N)N)C(N)=O [Peptide 3, [PhAc^0, D-Arg^2, Phe(pCl)^6, Har^9, Tyr(Me)^10, Abu^15, Nle^27, D-Arg^28, Har^29]hGH-RH(1–29)NH2] (PhAc-Y[dR]DAI[Phe(4-Cl)]TN[hArg]Y(Me)RKVL[Abu]QLSARKLLQDI[Nle][dR][hArg]-NH2) | 1688 ± 220** mm^3 | 4272 ± 295** mm^3 | 5939 ± 453 mg | 8 | 1902 ± 349** mm^3 | 3465 ± 607** mm^3 | 5266 ± 906 mg | 8 | 0.068 nM | 43 | strong and long-lasting inhibition | 68% | 61% | 3.63 ± 0.80 | 41% | 4.89 ± 0.95 | 34% | 5.36 ± 0.63 | 3.01 ± 0.41
